US8106023B2, “1,4-benzothiepin-1, 1-dioxide derivatives with improved properties method for producing the same, drugs containing said compounds and the use thereof” (Sanofi-Aventis Deutschland GmbH, priority 2006, dated 2012)

Biological target: T1, human IBAT (Homo sapiens, UniProt Q12908)
T1 construct: Bases 599 to 1645 correspond to the complete coding region of human IBAT; expressed in transfected cells; pcDNA1 vector
T1 sequence (Q12908 1-348): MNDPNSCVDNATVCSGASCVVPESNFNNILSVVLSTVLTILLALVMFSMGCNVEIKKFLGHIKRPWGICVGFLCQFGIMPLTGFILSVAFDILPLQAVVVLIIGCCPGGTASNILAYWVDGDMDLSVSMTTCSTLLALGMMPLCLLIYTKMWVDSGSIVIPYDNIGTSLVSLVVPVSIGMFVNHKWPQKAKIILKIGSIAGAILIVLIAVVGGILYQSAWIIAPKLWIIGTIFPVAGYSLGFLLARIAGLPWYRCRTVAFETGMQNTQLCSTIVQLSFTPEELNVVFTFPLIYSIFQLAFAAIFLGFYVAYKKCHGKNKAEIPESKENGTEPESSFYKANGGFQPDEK
Assay: in vitro IBAT inhibition assay: IBAT-dependent uptake of [3H]-taurocholic acid into CHO-hIBAT cells
Type: cell-based
Settings: 10 μM taurocholic acid, 60 min at room temperature, read-out: IC-50 (human IBAT)
Experimental: The cell clone with the highest uptake activity for [^3H]-TCA, referred to hereinafter as CHO-hIBAT, was selected for the further assays and further cultured in the presence of 400 μg/ml Geneticin.
3. Measurement of the Inhibitory Effect of the Compound of the Invention on the IBAT-Dependent Uptake of Taurocholic Acid into Cells
CHO-hIBAT cells were seeded in a concentration of 40 000 cells per well in poly-D-lysine-coated 96-well plates in cell culture medium and cultured for 24 h. […] Finally, 100 μl of scintillation fluid were added to each well, and the radioactivity taken up into the cells was determined in a MicroBeta Scintillation Microplate Reader from Wallac.
The half-maximum inhibitory effect of the test compound (IC50 value, inhibitory concentration 50) was determined in the following way: • 1. […] This is the measurement in the absence of substance, measured in sodium-containing transport assay buffer. • 2. […] This is the measurement in the absence of substance, measured in sodium-free transport assay buffer. • 3. […]

SMILES	IC50
CCCC[C@]1(CC)CS(=O)(=O)c2ccc(N(C)C)cc2[C@@H](c2cccc(NC(=O)N[C@@H]3O[C@H](CO)[C@@H](O)[C@H](O)[C@H]3O)c2)[C@H]1O [Example 1]	2.5 nM
CCCCC1(CCCC)CS(=O)(=O)c2ccc(N(C)C)cc2[C@@H](c2cccc(NC(=O)N[C@@H]3O[C@H](CO)[C@@H](O)[C@H](O)[C@H]3O)c2)[C@H]1O [Example 2]	6 nM
